Here are results for 16 compounds from patent US20250346613A1, “BORIC ACID PROTEASOME INHIBITOR AND USE THEREOF” (ARTIVILA BIOPHARMA, priority 2022, published 2025).

What all share (format): cell-based
Assay [1] concerns the target T1, β5c subunit of the 20S proteasome (Homo sapiens, UniProt P20618+P28074).
T1 construct: The proteasome tested in the present disclosure was derived from Raji cells; endogenous in cells; host or cells: Raji cells
The assay can be described thus: Proteasome inhibitory activity, β5c subunit (Raji cells treated with compound, lysed, Suc-LLVY-AMC substrate). The settings on record: proteasome from Raji cells incubated with compound 4 h. The source says: (§1) In the present disclosure, the fluorescent peptide substrate Ac-Ala-Asn-Trp-AMC (abbreviated as Ac-ANW-AMC) and the […] kit containing a fluorescent peptide substrate Suc-Leu-Leu-Val-Tyr-AMC (abbreviated as Suc-LLVY-AMC) (Promega, Item No. G8660) were used to detect the activities of the β5i subunit and β5c subunit of the 20S proteasome, respectively.
(§2) The proteasome tested in the present disclosure was derived from Raji cells, the fluorescent substrate Ac-ANW-AMC was purchased from Roche company, and other reagents were purchased from Sigma company. The experimental system was divided into two parts of cell lysis system and enzyme reaction system. […] The starting concentration of the compound (inhibitor) was 1 μM. It was diluted in a 3-fold serial dilution to a total of 8 concentrations, that is, the administration concentration can be 1 μM, 0.333 μM, 0.111 μM . . . , respectively, and the specific experimental process was described below.
(§3) Raji cells (1×10^6 cells) cryopreserved in liquid nitrogen were thawed rapidly in a water bath at 37° C. The cell pellet was transferred to a 15 mL centrifuge tube, added with 9 mL of fresh medium (Gibco RPMI1640 added with 10% fetal bovine serum and 1% double antibiotics), centrifuged at 120 g for 5 min, inoculated to 25 mL cell culture flasks, and passaged once every 2-3 days.
(§4) The compound was weighed and dissolved in DMSO to a concentration of 10 mM. The compound was then sequentially diluted to concentrations of 200 μM, 66.67 μM, 22.22 μM, 7.41 μM, 2.47 μM, 0.82 μM, 0.27 μM, and 0.091 μM with fresh medium. Raji cells in a good growth status were inoculated into a 48-well cell culture plate at 7×10^5 cells/mL.
(§5) Raji cells in a good growth status were taken and counted. They were then inoculated to a 48-well cell culture plate at 7×10^5 cells/mL. Each 5 μL of the various concentrations of diluted compounds above were taken and added to the culture plate inoculated with cells, and the lowest concentration of compound was 0 μM. The drug bortezomib (Velcade) and ONX-0914 were used as the positive control compounds. All cells were incubated at 37° C. for 4 h.
(§6) The compound-treated cells were sequentially transferred into 1.5 mL centrifuge tubes, centrifuged at 10000 rpm for 2 min, and the supernatants were removed. The cell pellet was resuspended in 1 mL of PBS, centrifuged at 10000 rpm for 2 min, and the supernatant was removed. Cells were resuspended by adding 100 μL of cell lysate (50 mM Tris of pH 7.5, 150 mM NaCl, 5 mM MgCl2, 5 mM ATP, 1 mM DTT, 0.01% NP-40, 1 mM Digitonin, and Cocktail), placed in an ice bath for 30 min, and centrifuged at 13000 rpm for 10 min.
(§7) 2 mg of fluorescent peptide substrate AC-ANW-AMC was dissolved in 424.7 μL of DMSO to obtain an 8 mM stock solution, and stored at −20° C. The stock solution was diluted 100-fold to a final concentration of […] for use in the reaction system. The fluorescent peptide substrate Suc-LLVY-AMC was prepared according to the instructions of the Promega kit.
(§8) Each 20 μL of the prepared proteasome solution above was added to a 96-well white luciferase microplate and added with 25 μL of AC-ANW-AM substrate buffer solution (50 mM Tris of pH 7.5, 150 mM NaCl, 5 mM MgCl2, 5 mM ATP, 80 uM Ac-ANW-AMC and 1 mM DTT) and 25 μL of Suc-LLVY-AMC substrate buffer solution for 10 min of reaction at 37° C. in the dark. Fluorescence values were read at 345 nm/445 nm by using a fluorence microplate reader.
(§9) The data were exported and the inhibition rate in percentage was calculated according to the following formula: Inhibition rate=(maximum signal value-compound signal value)/(maximum signal value−blank signal value)×100%.
(§10) Where the maximum signal was obtained from cell lysates treated with DMSO only, and the blank signal was obtained from wells containing only lysates.

The subject of the next assay is MM.1S cell strain. The assay can be described thus: Inhibitory activity of cell strain (CellTiter-Glo). The settings on record: Homo sapiens, MM1.S, 72 h incubation. The method, then: The cells used in this experiment were MM.1S cell strain and the detection reagent was CellTiter-Glo (Promega). […] The experimental process was described below. MM.1S cells in the logarithmic growth phase and in a good status were digested into individual cells by trypsin, centrifuged to remove the supernatant, and counted. Cells were diluted and 100 μL of cell suspension per well was added to a 96-well enzyme-coated plate at 1×10^5 cells per well. The wells containing only RPMI1640 complete medium were set as blank control. The 96-well plate was transferred to a 37° C. incubator containing 5% CO2 for 24 h of incubation.
The compound was accurately weighed and dissolved in DMSO to a concentration of 10^−2 M. 10 μL of compound was pipetted to 190 μL of DMSO to given a 5×10^−4 M compound. 6 μL of the compound (5×10^−5 M) was pipetted to a new 96-well microplate containing 194 μL of RPMI1640 complete medium and diluted in a 3-fold gradient dilution. 50 μL of the diluted compound was transferred to the 96-well microplate containing the cells such that the final compound concentrations were 5×10^−7 M, 1.67×10^−7 M, 5.55×10^−8 M, 1.85×10^−8 M, 6.17×10^−9 M, 2.06×10^−9 M, 6.86×10^−10 M, 2.29×10^−10 M, and 0 M. For the 0 M, no compound was added, and the same concentration of DMSO was added. The marketed drug bortezomib was used as a positive control. The 96-well microplate added with compounds was placed in the 37° C. incubator for 72 h of incubation.
At the predetermined detection time, the 96-well microplate to be detected was placed at room temperature, added with 40 μL of detection reagent (CellTiter-Glo) per well, and covered with a dark lid or piece of aluminium foil. The contents were mixed on an orbit oscillator for 10 min for complete cell lysis, with a vibration speed of 150 rpm. Luminescence values were detected on a multifunctional microplate reader (BioTek Synergy H1 Hybrid Multi-Mode Reade).
The data were exported and the percentage inhibition was calculated according to the following formula: Inhibition rate=(maximum signal value-compound signal value)/(maximum signal value−blank signal value)×100%, • wherein maximum signal was obtained from alone DMSO-treated cells, and blank signal was obtained from wells containing only culture medium.

Assay [2] concerns the target T2, β5i subunit of the 20S proteasome (Homo sapiens, UniProt P20618+P28062).
T2 construct: The proteasome tested in the present disclosure was derived from Raji cells; endogenous in cells; host or cells: Raji cells
Nature of the assay: Proteasome inhibitory activity, β5i subunit (Raji cells treated with compound, lysed, Ac-ANW-AMC substrate). The settings on record: proteasome from Raji cells incubated with compound 4 h.
From the text: as §1, §2, §3, §4, §5, §6, §7, §8, §9, §10

Turning to `O=C(CC(=O)N[C@@H](Cc1ccccc1)B(O)O)NCc1cccc(-c2ccccc2)c1` [Example 44, (R)-(1-(3-(([1,1′-biphenyl]-3-ylmethyl)amino)-3-oxopropionamido)-2-phenylethyl)boronic acid], the IC50 (in assay [1]; with MM.1S cell strain; in assay [2]) was at most 50 nM throughout.
As to `Cc1ccc(C[C@H](NC(=O)C(C)C(=O)NCc2cccc(-c3ccccc3)n2)B(O)O)cc1` (stereo partly drawn) [Example 45, ((1R)-1-(2-methyl-3-oxo-3-(((6-phenylpyridin-2-yl)methyl)amino)propionamide)-2-(p-tolyl)ethyl)boric acid], the IC50 (in assay [1]; in the assay with MM.1S cell strain; in assay [2]) was at most 50 nM each time.
On to `COc1cccc(CNC(=O)CC(=O)N[C@@H](Cc2coc3ccccc23)B(O)O)c1` [Example 46, (R)-(2-(benzofuran-3-yl)-1-(3-((3-methoxybenzyl)amino)-3-oxopropionamido)ethyl)boric acid], for which the IC50 (in assay [1]; in the assay with MM.1S cell strain; in assay [2]) was at most 50 nM in each case.
As for `CC(C(=O)Nc1ccccc1)C(=O)N[C@@H](Cc1ccccc1)B(O)O` (stereo partly drawn) [Example 47, ((1R)-1-(2-methyl-3-oxo-3-(phenylamino)propionylamino)-2-phenylethyl)boronic acid], the IC50 was 50 to 200 nM in assay [1], 200 to 500 nM in the assay on MM.1S cell strain and at most 50 nM in assay [2].
As to `COc1cccc(CNC(=O)CC(=O)N[C@@H](CC(C)C)B(O)O)c1` [Example 48, (R)-(1-(3-((3-methoxybenzyl)amino)-3-oxopropionamido)-3-methylbutyl)boric acid], the IC50 (in assay [1]; in the assay on MM.1S cell strain; in assay [2]) was at most 50 nM each time.
Consider `COc1cccc(CNC(=O)CC(=O)N[C@@H](Cc2ccccc2)B(O)O)c1` [Example 49, (R)-(1-(3-((3-methoxybenzyl)amino)-3-oxopropionylamino)-2-phenylethyl)boric acid], for which the IC50 (in assay [1]; in the assay on MM.1S cell strain; in assay [2]) was at most 50 nM throughout.
For `COc1cccc(CNC(=O)CC(=O)N[C@@H](Cc2ccc(C)cc2)B(O)O)c1` [Example 50, (R)-(1-(3-((3-methoxybenzyl)amino)-3-oxopropionylamino)-2-(p-tolyl)ethyl)boric acid], the IC50 (in assay [1]; in the assay on MM.1S cell strain; in assay [2]) was at most 50 nM throughout.
For `Cc1ccc(C[C@H](NC(=O)C(C)(F)C(=O)NCc2cccc(-c3ccccc3)n2)B(O)O)cc1` (stereo partly drawn) [Example 56, ((1R)-1-(2-fluoro-2-methyl-3-oxo-3-(((6-phenylpyridin-2-yl)methyl)amino)propionylamino)-2-(p-tolyl)ethyl)boric acid], the IC50 was at most 50 nM in assay [1], 50 to 200 nM with MM.1S cell strain and at most 50 nM in assay [2].
Turning to `CC(C(=O)NCc1cccc(-c2ccccc2)n1)C(=O)N[C@@H](Cc1coc2ccccc12)B(O)O` (stereo partly drawn) [Example 57, ((1R)-2-(benzofuran-3-yl)-1-(2-methyl-3-oxo-3-(((6-phenylpyridin-2-yl)methyl)amino)propionamido)ethyl)boric acid], the IC50 (in assay [1]; in the assay on MM.1S cell strain; in assay [2]) was at most 50 nM in each case.
As for `CC(C(=O)NCc1cccc(-c2ccccc2)n1)C(=O)N[C@@H](Cc1ccc(-c2ccccc2)cc1)B(O)O` (stereo partly drawn) [Example 58], the IC50 in assay [1] was at most 50 nM; with MM.1S cell strain it was 50 to 200 nM; in assay [2], at most 50 nM.
Turning to `CC(C(=O)NCc1ccc(Cl)cc1Cl)C(=O)N[C@@H](Cc1coc2ccccc12)B(O)O` (stereo partly drawn) [Example 60, ((1R)-2-(benzofuran-3-yl)-1-(3-((2,4-dichlorobenzyl)amino)-2-methyl-3-oxopropionamido)ethyl) boric acid], the IC50 (in assay [1]; with MM.1S cell strain; in assay [2]) was at most 50 nM in each case.
Regarding `COc1cccc(CCNC(=O)C(C)C(=O)N[C@@H](Cc2ccc(C)cc2)B(O)O)c1` (stereo partly drawn) [Example 62, ((1R)-1-(3-((3-methoxyphenylethyl)amino)-2-methyl-3-oxopropionamido)-2-(p-tolyl)ethyl)boric acid], the IC50 (in assay [1]; in the assay with MM.1S cell strain; in assay [2]) was at most 50 nM throughout.
`COc1cccc(CCNC(=O)C(C)C(=O)N[C@@H](Cc2ccc(-c3ccccc3)cc2)B(O)O)c1` (stereo partly drawn) [Example 64, ((1R)-2-([1,1′-biphenyl]-4-yl)-1-(3-((3-methoxyphenylethyl)amino)-2-methyl-3-oxopropionamido)ethyl)boric acid]: the IC50 (in assay [1]; with MM.1S cell strain; in assay [2]) was at most 50 nM throughout.
As to `COc1cccc(CNC(=O)C(Cc2ccccc2)C(=O)N[C@@H](Cc2ccc(C)cc2)B(O)O)c1` (stereo partly drawn) [Example 65, ((1R)-1-(2-benzyl-3-((3-methoxybenzyl)amino)-3-oxopropionamido)-2-(p-tolyl)ethyl)boric acid], the IC50 (in assay [1]; with MM.1S cell strain; in assay [2]) was at most 50 nM throughout.
`COc1cccc(CNC(=O)C(Cc2ccccc2)C(=O)N[C@@H](CC(C)C)B(O)O)c1` (stereo partly drawn) [Example 66, ((1R)-1-(2-benzyl-3-((3-methoxybenzyl)amino)-3-oxopropionamido)-3-methylbutyl)boronic acid]: the IC50 (in assay [1]; with MM.1S cell strain; in assay [2]) was at most 50 nM in each case.
For the compound `CC(C(=O)NCc1cccc(OC(F)(F)F)c1)C(=O)N[C@@H](Cc1coc2ccccc12)B(O)O` (stereo partly drawn) [Example 73, ((1R)-2-(benzofuran-3-yl)-1-(2-methyl-3-oxo-3-((3-(trifluoromethoxy)benzyl)amino)propionamido)ethyl)boric acid], the IC50 (in assay [1]; with MM.1S cell strain; in assay [2]) was at most 50 nM each time.
